62 compounds from ChEMBL document CHEMBL3879881, “Substituted pyrazolyl compounds for the treatment of inflammation” (2005) can be followed below.

This experiment addresses T1, Inhibitor of nuclear factor kappa-B kinase subunit beta (Homo sapiens, UniProt O14920).
T1 sequence (O14920 whole entry): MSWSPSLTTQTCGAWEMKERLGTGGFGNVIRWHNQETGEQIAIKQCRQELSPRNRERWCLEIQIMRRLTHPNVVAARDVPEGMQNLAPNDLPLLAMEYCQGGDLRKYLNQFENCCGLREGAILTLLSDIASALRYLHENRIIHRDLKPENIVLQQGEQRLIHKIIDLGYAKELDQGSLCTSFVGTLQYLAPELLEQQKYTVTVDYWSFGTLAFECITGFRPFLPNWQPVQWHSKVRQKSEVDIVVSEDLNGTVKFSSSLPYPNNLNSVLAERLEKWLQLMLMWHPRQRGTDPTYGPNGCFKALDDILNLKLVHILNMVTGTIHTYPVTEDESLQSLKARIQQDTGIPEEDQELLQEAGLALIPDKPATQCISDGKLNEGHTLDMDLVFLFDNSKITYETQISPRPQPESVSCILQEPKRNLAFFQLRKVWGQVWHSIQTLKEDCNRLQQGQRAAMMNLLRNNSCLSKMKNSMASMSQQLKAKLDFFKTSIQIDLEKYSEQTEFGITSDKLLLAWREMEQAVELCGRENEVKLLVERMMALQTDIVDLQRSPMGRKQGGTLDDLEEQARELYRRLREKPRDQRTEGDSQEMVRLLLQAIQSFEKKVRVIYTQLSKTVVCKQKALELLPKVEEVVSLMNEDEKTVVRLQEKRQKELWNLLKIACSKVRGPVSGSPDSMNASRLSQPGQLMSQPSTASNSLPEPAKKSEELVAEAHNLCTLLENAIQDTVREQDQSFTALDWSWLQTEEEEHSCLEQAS
The experiment can be described thus: Inhibition of human recombinant C-terminal FLAG-epitope-tagged IKK2 expressed in baculovirus using biotinylated IkappaBalpha peptide as substrate assessed as decrease in [gamma-33P]-ATP incorporation in substrate after 30 mins by scintillation counting method.

Usually IC50 stands for the concentration that gives 50% inhibition. As for `CC1(C)OCC(COc2ccc(-n3nc(C(N)=O)c4c3-c3cc(NC(=O)c5ccc(S(C)(=O)=O)cc5Cl)ccc3CC4)cc2)O1` (configuration not stated), the IC50 lay within 1 to 10 µM.
Then `NC(=O)c1nn(-c2ccc(S(N)(=O)=O)cc2)c2c1CCc1ccc(NS(=O)(=O)C(F)(F)F)cc1-2`, with 10 to 100 µM; and `CCCCS(=O)(=O)Nc1ccc2c(c1)-c1c(c(C(N)=O)nn1-c1ccc(S(N)(=O)=O)cc1)CC2`, with 1 to 10 µM; and `COc1cccc(CC(=O)Nc2ccc3c(c2)-c2c(c(C(N)=O)nn2-c2ccc(S(N)(=O)=O)cc2)CC3)c1`, with 1 to 10 µM.
To `COc1ccc(S(=O)(=O)Nc2ccc3c(c2)-c2c(c(C(N)=O)nn2-c2ccc(S(N)(=O)=O)cc2)CC3)cc1` belongs 10 to 100 µM; to `NC(=O)c1nn(-c2ccc(F)cc2)c2c1CCc1ccc(NC(=O)c3cc(CN4CCOCC4)ncc3Cl)cc1-2`, at most 1 µM.
Then `NC(=O)c1nn(-c2ccc(S(N)(=O)=O)cc2)c2c1CCc1ccc(NCc3ccc(Cl)cc3)cc1-2`, with 10 to 100 µM.
In the case of `NC(=O)c1nn(-c2ccc(S(N)(=O)=O)cc2)c2c1CCc1ccc(NS(=O)(=O)c3cccc(C(F)(F)F)c3)cc1-2`, the half-maximal inhibitory concentration (IC50) fell in the range of 10 to 100 µM.
Then `C[C@@H](N)C(=O)Nc1ccc2c(c1)-c1c(c(C(N)=O)nn1-c1ccc(S(N)(=O)=O)cc1)CC2`, with 1 to 10 µM.
To `NC(=O)c1nn(-c2ccc(S(=O)(=O)CC3CC3)cc2)c2c1CCc1ccc(NC(=O)c3ccccc3Cl)cc1-2` belongs 1 to 10 µM.
To `CS(=O)(=O)c1ccc(-n2nc(C(N)=O)c3c2-c2cc(NC(=O)c4cc(Cl)ccc4N)ccc2CC3)cc1` belongs 1 to 10 µM.
In the case of `CC(O)c1ccc(-n2nc(C(N)=O)c3c2-c2cc(NC(=O)c4cccnc4Cl)ccc2CC3)cc1` (configuration not stated), the concentration for half-maximal inhibition (IC50) is at most 1 µM.
Regarding `Cc1cccc(S(=O)(=O)Nc2ccc3c(c2)-c2c(c(C(N)=O)nn2-c2ccc(S(N)(=O)=O)cc2)CC3)c1`, the 50% inhibitory concentration (IC50) was 10 to 100 µM.
For `COCCN1CCN(c2cc(C(=O)Nc3ccc4c(c3)-c3c(c(C(N)=O)nn3-c3ccc(F)cc3)CC4)c(Cl)cn2)CC1`, the IC50 was at most 1 µM.
For `CC(=O)Oc1cccc(C(=O)Nc2ccc3c(c2)-c2c(c(C(N)=O)nn2-c2cccc(F)c2)CC3)c1C`, the half-maximal inhibitory concentration (IC50) lay within 1 to 10 µM.
For `C[C@@H]1CN(c2cc(C(=O)Nc3ccc4c(c3)-c3c(c(C(N)=O)nn3-c3ccc(F)cc3)CC4)c(Cl)cn2)C[C@H](C)N1`, the concentration for half-maximal inhibition (IC50) is at most 1 µM.
Then `NC(=O)c1nn(-c2ccc(S(N)(=O)=O)cc2)c2c1CCc1ccc(NS(=O)(=O)c3ccc4cccnc4c3)cc1-2`, with over 100 µM.
Then `NC(=O)c1nn(-c2ccc(C(F)(F)F)cc2)c2c1CCc1ccc(N)cc1-2`, with 1 to 10 µM.
For the compound `NC(=O)c1nn(-c2ccc3c(c2)OCO3)c2c1CCc1ccc(NC(=O)c3cc(CCN4CCOCC4)ncc3Cl)cc1-2`, the half-inhibitory concentration (IC50) is at most 1 µM.
For `C[C@H]1CN(c2cc(C(=O)Nc3ccc4c(c3)-c3c(c(C(N)=O)nn3-c3ccc(F)cc3)CC4)c(Cl)cn2)CCN1`, the IC50 was at most 1 µM.
To `CN(C)C(=O)/C=C/c1ccc(-n2nc(C(N)=O)c3c2-c2cc(NS(C)(=O)=O)ccc2CC3)cc1` belongs 1 to 10 µM.
Then `NC(=O)c1nn(-c2ccc(S(N)(=O)=O)cc2)c2c1CCc1ccc(NC(=O)C34CC5CC(CC(C5)C3)C4)cc1-2`, with 1 to 10 µM.
Regarding `NC(=O)c1nn(-c2ccc(-c3ccc(C(=O)O)cc3)cc2)c2c1CCc1ccc(NC(=O)c3ccccc3Cl)cc1-2`, the concentration for half-maximal inhibition (IC50) lay in the range of 1 to 10 µM.
As for `NC(=O)c1nn(-c2ccncc2)c2c1CCc1ccc(NC(=O)c3cc(Cl)ncc3Cl)cc1-2`, the IC50 is at most 1 µM.
On to `C[C@@H]1CN(c2cc(C(=O)Nc3ccc4c(c3)-c3c(c(C(N)=O)nn3-c3ccc(F)cc3)CC4)c(Cl)cn2)CCN1C`, for which the IC50 is at most 1 µM.
To `CS(=O)(=O)c1ccc(-n2nc(C(N)=O)c3c2-c2cc(NC(=O)c4cn[nH]c4)ccc2CC3)cc1` belongs 1 to 10 µM; to `Cc1ccc(CNc2ccc3c(c2)-c2c(c(C(N)=O)nn2-c2ccc(S(N)(=O)=O)cc2)CC3)cc1`, 10 to 100 µM; to `CC(=O)Nc1nc(C)c(S(=O)(=O)Nc2ccc3c(c2)-c2c(c(C(N)=O)nn2-c2ccc(S(N)(=O)=O)cc2)CC3)s1`, 1 to 10 µM.
`CCCS(=O)(=O)c1ccc(-n2nc(C(N)=O)c3c2-c2cc(N)ccc2CC3)cc1`: the IC50 lay in the range of 1 to 10 µM.
To `CCS(=O)(=O)c1ccc(-n2nc(C(N)=O)c3c2-c2cc(NS(C)(=O)=O)ccc2CC3)cc1` belongs 1 to 10 µM; to `NC(=O)c1nn(-c2ccc(S(N)(=O)=O)cc2)c2c1CCc1ccc(NC(=O)c3cccs3)cc1-2`, 10 to 100 µM.
Then `NC(=O)c1nn(-c2ccc(S(N)(=O)=O)cc2)c2c1CCc1ccc(NS(=O)(=O)c3ccc(Cl)cc3)cc1-2`, with 1 to 10 µM; and `NC(=O)c1nn(-c2ccc(/C=C/C(=O)NCc3ccccc3)cc2)c2c1CCc1ccc(NC(=O)c3ccccc3Cl)cc1-2`, with 1 to 10 µM.
To `NC(=O)c1nn(-c2ccc3c(c2)OCO3)c2c1CCc1ccc(NC(=O)c3cc(N4CCNCC4)ncc3Cl)cc1-2` belongs at most 1 µM; to `NC(=O)c1nn(-c2ccc(S(N)(=O)=O)cc2)c2c1CCc1ccc(NS(=O)(=O)c3cccc(Cl)c3)cc1-2`, 1 to 10 µM; to `C[C@H](N)C(=O)Nc1ccc2c(c1)-c1c(c(C(N)=O)nn1-c1ccc(S(N)(=O)=O)cc1)CC2`, 1 to 10 µM.
For the compound `Cc1nc(S(=O)(=O)Nc2ccc3c(c2)-c2c(c(C(N)=O)nn2-c2ccc(S(N)(=O)=O)cc2)CC3)cn1C`, the IC50 was in the range of 10 to 100 µM.
Then `CC(=O)Oc1cccc(C(=O)Nc2ccc3c(c2)-c2c(c(C(N)=O)nn2-c2ccc(S(C)(=O)=O)cc2)CC3)c1C`, with 1 to 10 µM; and `CCCS(=O)(=O)c1ccc(-n2nc(C(N)=O)c3c2-c2cc(NC(=O)c4cc(NC(=O)OC(C)(C)C)ccc4Cl)ccc2CC3)cc1`, with 1 to 10 µM.
Then `C[S+]([O-])c1ccc(Cl)c(C(=O)Nc2ccc3c(c2)-c2c(c(C(N)=O)nn2-c2ccc4c(c2)OCO4)CC3)c1` (configuration not stated), with at most 1 µM; and `NC(=O)c1nn(-c2ccc(OCC(O)CO)cc2)c2c1CCc1ccc(NC(=O)c3ccccc3Cl)cc1-2` (configuration not stated), with at most 1 µM; and `NC(=O)c1nn(-c2ccc(S(N)(=O)=O)cc2)c2c1CCc1ccc(NS(=O)(=O)c3ccc(-c4ccccc4)cc3)cc1-2`, with 1 to 10 µM.
On to `CC1(C)OCC(COc2ccc(-n3nc(C(N)=O)c4c3-c3cc(NC(=O)c5ccncc5Cl)ccc3CC4)cc2)O1` (configuration not stated), for which the 50% inhibitory concentration (IC50) lay within 1 to 10 µM.
Regarding `NC(=O)c1nn(-c2ccc(S(N)(=O)=O)cc2)c2c1CCc1ccc(NS(=O)(=O)c3cccc4ccccc34)cc1-2`, the IC50 is 10 to 100 µM.
To `CNC(=O)/C=C/c1ccc(-n2nc(C(N)=O)c3c2-c2cc(NS(C)(=O)=O)ccc2CC3)cc1` belongs at most 1 µM.
Then `NC(=O)c1nn(-c2ccc(S(N)(=O)=O)cc2)c2c1CCc1ccc(NS(=O)(=O)c3ccc(-c4ccccn4)s3)cc1-2`, with 10 to 100 µM; and `CN(C)CCN(C)c1cc(C(=O)Nc2ccc3c(c2)-c2c(c(C(N)=O)nn2-c2ccc(F)cc2)CC3)c(Cl)cn1`, with at most 1 µM.
`NC(=O)c1nn(-c2ccc(S(N)(=O)=O)cc2)c2c1CCc1ccc(NC(=O)c3ccccc3F)cc1-2`: the half-inhibitory concentration (IC50) was at most 1 µM.
Then `NC(=O)c1nn(-c2ccc(C(=O)O)cc2)c2c1CCc1ccc(NC(=O)c3ccccc3Cl)cc1-2`, with 1 to 10 µM.
Then `Cc1ncccc1C(=O)Nc1ccc2c(c1)-c1c(c(C(N)=O)nn1-c1ccc3c(c1)OCO3)CC2`, with 1 to 10 µM.
Regarding `NC(=O)c1nn(-c2ccc(S(N)(=O)=O)cc2)c2c1CCc1ccc(NS(=O)(=O)Cc3ccccc3)cc1-2`, the 50% inhibitory concentration (IC50) is 1 to 10 µM.
`CCS(=O)(=O)Nc1ccc2c(c1)-c1c(c(C(N)=O)nn1-c1ccc(S(N)(=O)=O)cc1)CC2`: the IC50 is at most 1 µM.
Regarding `CCOC(=O)/C=C/c1ccc(-n2nc(C(N)=O)c3c2-c2cc(NC(=O)c4ccccc4Cl)ccc2CC3)cc1`, the IC50 fell in the range of 1 to 10 µM.
To `NC(=O)c1nn(-c2ccc(F)cc2)c2c1CCc1ccc(NC(=O)c3cc(N4CCCNCC4)ncc3Cl)cc1-2` belongs at most 1 µM.
To `C[C@@H]1CN(c2cc(C(=O)Nc3ccc4c(c3)-c3c(c(C(N)=O)nn3-c3ccc(F)cc3)CC4)c(Cl)cn2)CCN1` belongs at most 1 µM; to `NC(=O)c1nn(-c2ccc3c(c2)OCO3)c2c1CCc1ccc(NC(=O)c3ccc(Cl)c(N)c3)cc1-2`, 1 to 10 µM.
To `COc1ccc([N+](=O)[O-])c(C(=O)Nc2ccc3c(c2)-c2c(c(C(N)=O)nn2-c2ccc4c(c2)OCO4)CC3)c1` belongs 1 to 10 µM.
As for `CCNC(=O)Nc1ccc2c(c1)-c1c(c(C(N)=O)nn1-c1ccc(S(N)(=O)=O)cc1)CC2`, the IC50 is 1 to 10 µM.
Then `NC(=O)c1nn(-c2ccc3c(c2)OCO3)c2c1CCc1ccc(NC(=O)CNCC3CC3)cc1-2`, with 1 to 10 µM; and `CCCCC(=O)Nc1ccc2c(c1)-c1c(c(C(N)=O)nn1-c1ccc(S(N)(=O)=O)cc1)CC2`, with 1 to 10 µM; and `CC1(C)OCC(COc2ccc(-n3nc(C(N)=O)c4c3-c3cc(NC(=O)c5ccccc5Cl)ccc3CC4)cc2)O1` (configuration not stated), with at most 1 µM.
Then `CC(=O)CCc1ccc(-n2nc(C(N)=O)c3c2-c2cc(NS(C)(=O)=O)ccc2CC3)cc1`, with 1 to 10 µM.
